Assay results reported in patent publication US11077159B2, “Compositions from halophyte plants and methods of use thereof” (KHALIFA UNIVERSITY OF SCIENCE AND TECHNOLOGY, priority 2017, dated 2021).
Where “and” joins values, the source holds several entries; their conditions need not be identical. Identical values can stand only once.

Columns and labels:
IL-8 release of NHEK = IL-8 release of NHEK stimulated by PMA (ELISA), anti-inflammatory; format: cell-based, human; settings: 10^−9M
Source text: (§1) The matrix metalloproteinase-1 (MMP-1) assay using a specific ELISA kit was used to evaluate anti-aging properties. The migration/proliferation of NHEK using kinetic image analysis of the wound recovery was used to evaluate cell renewal properties. The IL-8 release on NHEK stimulated by PMA using a specific ELISA kit was used to evaluate anti-inflammatory properties.

Hyaluronic acid = Hyaluronic acid synthesis; format: cell-based; settings: 10^−7M
[1] = Scavenging of reactive oxygen species; settings: control reference, concentration not given
[2] = system: matrix metalloproteinase-1 (MMP-1) release; assay: MMP-1 release by aged fibroblasts (ELISA), anti-aging; format: cell-based, human; settings: 10^−7M
Source text: as §1, with “[…] The matrix” for “The matrix”

[3] = DPPH free radical scavenging (antioxidant) assay; format: biochemical; settings: positive control, 0.3 mg/mL; ± standard error
Procedure: Two controls were used in the DPPH assay; a negative control containing all reagents except for the test extract, and a positive control using a final concentration of 0.33 mg/mL L-ascorbic acid as antioxidant instead of test extract. Radical scavenging activity was calculated as follows: Scavenging activity (%)=[(Acontrol−Atest)/[…]]*100 Where Acontrol is the negative control (without test extract), and Atest is the absorbance with the botanical extract. All analysis were carried out in triplicate.

With `CN[C@@H]1C[C@H]2O[C@@](C)([C@@H]1OC)n1c3ccccc3c3c4c(c5c6ccccc6n2c5c31)C(=O)NC4` [Staurosporine] the “IL-8 % Stimulated control” value (IL-8 release of NHEK) was 54%, the “IL-8 Mean” value (IL-8 release of NHEK; PMA 0.1 μg/ml) was 1685 pg/mL and the “IL-8 (pg/ml) dilution factor adjusted” value (IL-8 release of NHEK; PMA 0.1 μg/ml, non-diluted sample, single replicate) was 1579 pg/mL and 1809 pg/mL and 1668 pg/mL.
For `CC1=C(/C=C/C(C)=C/C=C/C(C)=C/C(=O)O)C(C)(C)CCC1` [Retinoic acid], the “Hyaluronic acid % Control” value (Hyaluronic acid) was 241%, the “Hyaluronic acid % Stimulation” value (Hyaluronic acid) was 141% and the “Hyaluronic acid Mean” value (Hyaluronic acid) was 655.7 ng/mL. The “Hyaluronic acid (ng/ml) dilution factor adjusted” value (Hyaluronic acid; single replicate) was 677.2 ng/mL and 632.1 ng/mL and 657.9 ng/mL.
With Vitamin-E the ROS scavenged [1] was 92%.
With `C[C@@H]1C[C@H]2[C@@H]3CCC4=CC(=O)C=C[C@]4(C)[C@@]3(F)[C@@H](O)C[C@]2(C)[C@@]1(O)C(=O)CO` [Dexamethasone] the “MMP-1 % Control (P17-F)” value [2] was 58%, the inhibition at 0.1 µM ([2]; Homo sapiens, Fibroblast) was 42% and the “MMP-1 (ng/ml) dilution factor adjusted” value ([2]; P17-F aged fibroblasts, single replicate) was 8.7 ng/mL and 8.2 ng/mL and 8.5 ng/mL. For the same compound, the “MMP-1 Mean” value ([2]; P17-F) was 8.5 ng/mL.
For `O=C1O[C@H]([C@@H](O)CO)C(O)=C1O` [L-ascorbic acid], the DPPH scavenging activity [3] was 95.79±0.17%.
